pIC50: −log10 of the molar value.
Molecular target: T1, Human TRPV3 (Homo sapiens, UniProt Q8NET8)
T1 construct: expressed in transfected cells; host or cells: CHO cells (G-418 selected)
T1 sequence (Q8NET8 1-790): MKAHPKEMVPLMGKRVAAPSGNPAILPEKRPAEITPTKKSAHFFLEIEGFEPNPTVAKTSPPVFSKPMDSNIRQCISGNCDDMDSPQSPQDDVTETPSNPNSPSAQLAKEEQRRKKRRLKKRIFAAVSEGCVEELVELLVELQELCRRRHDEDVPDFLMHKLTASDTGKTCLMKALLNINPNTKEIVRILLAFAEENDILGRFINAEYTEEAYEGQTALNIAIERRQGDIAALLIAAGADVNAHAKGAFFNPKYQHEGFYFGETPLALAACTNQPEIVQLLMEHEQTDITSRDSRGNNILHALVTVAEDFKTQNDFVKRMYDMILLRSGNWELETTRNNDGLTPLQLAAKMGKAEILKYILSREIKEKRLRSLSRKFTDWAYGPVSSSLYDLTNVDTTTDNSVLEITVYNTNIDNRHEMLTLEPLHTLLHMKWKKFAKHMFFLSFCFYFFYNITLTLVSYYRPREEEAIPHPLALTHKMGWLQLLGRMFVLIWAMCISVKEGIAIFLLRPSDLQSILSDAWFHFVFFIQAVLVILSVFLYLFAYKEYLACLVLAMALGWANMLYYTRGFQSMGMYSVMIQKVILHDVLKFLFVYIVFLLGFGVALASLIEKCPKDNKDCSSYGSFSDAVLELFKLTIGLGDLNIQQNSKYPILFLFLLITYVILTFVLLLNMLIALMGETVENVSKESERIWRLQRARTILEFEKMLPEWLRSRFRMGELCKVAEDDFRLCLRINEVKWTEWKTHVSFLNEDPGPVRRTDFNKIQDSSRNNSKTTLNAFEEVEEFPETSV
Experiment: 45Calcium uptake assay: inhibition of 2-APB induced cellular uptake of radioactive calcium
Type: cell-based
Settings: human TRPV3 expressing CHO cells, 2-APB 500 μM; for inhibition at 1 µM: 1.0 μM compound, read-out: Percentage inhibition at 1.0 μM; for inhibition at 10 µM: 10.0 μM compound, read-out: Percentage inhibition at 10.0 μM
Description: The illustrative examples of the present invention are screened for TRPV3 activity according to a modified procedure described in Toth, A. et al. Life Sciences (2003), 73, 487-498. The screening of the compounds can be carried out by other methods and procedures known to a person skilled in the art. Such screening methods may be found in Hu, H-Z., et al. J. Biol. Chem. (2004), 279, 35741-35748; Smith, G. D et al. Nature (2002), 418, 186-190 and Peier, A. M., et al. Science (2002), 296, 2046-2049.
Screening for TRPV3 Antagonist Using the ^45Calcium Uptake Assay:
The inhibition of TRPV3 receptor activation was followed as inhibition of 2-APB induced cellular uptake of radioactive calcium. Test compounds were dissolved in DMSO to prepare 20 mM stock and then diluted using plain medium with 0.1% BSA and 1.8 mM CaCl2 to get desired concentration. Final concentration of DMSO in the reaction was 0.5% (v/v). Human TRPV3 expressing CHO cells were grown in F-12 DMEM medium with 10% FBS, 1% penicillin-streptomycin solution, 400 μg/ml of G-418. Cells were seeded 24 h prior to the assay in 96 well plates so as to get ˜50,000 cells per well on the day of experiment. Cells were treated with test compounds for 10 minutes followed by addition of 2-APB at a final concentration of 500 μM and 5 μCi/ml ^45Ca^+2 for 4 minutes. Cells were washed and lysed using buffer containing 1% Triton X-100, 0.1% deoxycholate and 0.1% SDS. Radioactivity in the lysate was measured in Packardt Top count after addition of liquid scintillant.
Concentration response curves were plotted as a % of maximal response obtained in the absence of test antagonist. IC50 value was calculated from concentration response curve by nonlinear regression analysis using GraphPad PRISM software.
Percentage inhibition at concentrations of 1.0 μM and 10.0 μM are given in the table along with IC50 (nM) values for selected examples.

Structure (SMILES)	inhibition at 1 µM	inhibition at 10 µM	pIC50
COc1ccccc1CC(=O)NC1CC2(CCC2)Oc2ccc(Cl)cc21 (stereo not shown) [Example 2, N-(6-Chloro-3,4-dihydrospiro[chromene-2,1′-cyclobutan]-4-yl)-2-(2-methoxyphenyl)-acetamide]	12%	79%	< 5.70
CS(=O)(=O)Nc1ccccc1CC(=O)NC1CC2(CCC2)Oc2ccc(Cl)cc21 (stereo not shown) [Example 3, N-(6-chloro-3,4-dihydrospiro[chromene-2,1′cyclobutan]-4-yl)-2-{2-[(methylsulfonyl)-amino]phenyl}acetamide]	0%	33.1%	–
COc1cccc(CC(=O)NC2CC3(CCC3)Oc3ccc(Cl)cc32)c1OC1CCCC1 (stereo not shown) [Example 4, N-(6-Chloro-3,4-dihydrospiro[chromene-2,1′-cyclobutan]-4-yl)-2-(2-(cyclopentyloxy)-3-methoxyphenyl)acetamide]	37.2%	66.2%	–
COc1cccc(CC(=O)N[C@@H]2CC3(CCC3)Oc3c(Cl)cccc32)c1OC1CCCC1 [Example 5, N-[(4R)-8-Chloro-3,4-dihydrospiro[chromene-2,1′-cyclobutan]-4-yl]-2-(2-cyclopentyloxy-3-methoxy)phenylacetamide]	11.7%	86.8%	–
COc1cccc(CC(=O)N[C@H]2CC3(CCC3)Oc3c(Cl)cccc32)c1OC1CCCC1 [Example 6, N-[(4S)-8-Chloro-3,4-dihydrospiro[chromene-2,1′-cyclobutan]-4-yl]-2-(2-cyclopentyl-oxy-3-methoxy)phenylacetamide]	35.3%	89%	–
O=C(Cc1ccccn1)NC1CC2(CCC2)Oc2ccc(Cl)cc21 (stereo not shown) [Example 8, N-(6-Chloro-3,4-dihydrospiro[chromene-2,1′-cyclobutan]-4-yl)-2-pyridin-2-ylacetamide]	3.8%	22.5%	–
O=C(Cc1cccc2ccccc12)NC1CC2(CCC2)Oc2ccc(F)cc21 (stereo not shown) [Example 10]	13.7%	92.4%	–
O=C(Cc1cccc2ccccc12)N[C@@H]1CC2(CCC2)Oc2c(F)cc(F)cc21 [Example 11, N-[(4R)-6,8-difluoro-3,4-dihydrospiro[chromene-2,1′-cyclobutan]-4-yl]-2-(1-naphthyl)acetamide]	23.6%	76%	–
O=C(Cc1cccc2ccccc12)N[C@H]1CC2(CCC2)Oc2ccc(Cl)cc21 [Example 13, N-[(4S)-6-Chloro-3,4-dihydrospiro[chromene-2,1′-cyclobutan]-4-yl]-2-(1-naphthyl)-acetamide]	5.9%	87.6%	5.70 to 6.00
O=C(Cc1cccc2ccccc12)NC1CC2(CCC2)Oc2cc(Cl)ccc21 (stereo not shown) [Example 14, N-(7-Chloro-3,4-dihydrospiro[chromene-2,1′-cyclobutan]-4-yl)-2-(1-naphthyl)acetamide]	9.8%	78.8%	–
O=C(Cc1cccc2ccccc12)N[C@@H]1CC2(CCC2)Oc2c(Cl)cccc21 [Example 15, N-[(4R)-8-Chloro-3,4-dihydrospiro[chromene-2,1′-cyclobutan]-4-yl]-2-(1-naphthyl)-acetamide]	–	27.3%	–
O=C(Cc1ccc2ccccc2c1)NC1CC2(CCC2)Oc2ccc(Cl)cc21 (stereo not shown) [Example 18, N-(6-Chloro-3,4-dihydrospiro[chromene-2,1′-cyclobutan]-4-yl)-2-(2-naphthyl)acetamide]	36.1%	72.3%	–
COc1ccc2cc([C@H](C)C(=O)N[C@@H]3CC4(CCC4)Oc4ccc(Cl)cc43)ccc2c1 [Example 19, (2S)—N-[(4R)-6-Chloro-3,4-dihydrospiro[chromene-2,1′-cyclobutan]-4-yl]-2-(6-methoxy-2-naphthyl)propanamide]	23.1%	61.7%	–
COc1ccc2cc([C@H](C)C(=O)N[C@H]3CC4(CCC4)Oc4ccc(Cl)cc43)ccc2c1 [Example 20, (2S)—N-[(4S)-6-Chloro-3,4-dihydrospiro[chromene-2,1′-cyclobutan]-4-yl]-2-(6-methoxy-2-naphthyl)propanamide]	19.3%	50.9%	–
O=C(CC1CCc2ccccc2C1)NC1CC2(CCC2)Oc2ccc(Cl)cc21 (stereo not shown) [Example 22, N-[(6-Chloro-3,4-dihydrospiro[chromene-2,1′-cyclobutan]-4-yl)]-2-(1,2,3,4-tetrahydronaphthalen-2-yl)acetamide]	35.3%	72.1%	–
COc1ccc2[nH]c(C)c(CC(=O)NC3CC4(CCC4)Oc4ccc(Cl)cc43)c2c1 (stereo not shown) [Example 25, N-(6-Chloro-3,4-dihydrospiro[chromene-2,1′-cyclobutan]-4-yl)-2-(5-methoxy-2-methyl-1H-indol-3-yl)acetamide]	19%	48%	–

Second part, the compound after the results:

inhibition at 1 µM	inhibition at 10 µM	pIC50	Structure (SMILES)
1.7%	10%	–	O=C(Cc1ccccc1)NC1CC2(CCC2)Oc2c(Cl)cccc21 (stereo not shown) [Example 1, N-(8-Chloro-3,4-dihydrospiro[chromene-2,1′-cyclobutan]-4-yl)-2-phenylacetamide]
9.2%	20.3%	–	COc1ccc(CC(=O)NC2CC3(CCC3)Oc3ccc(Cl)cc32)cc1OC (stereo not shown) [Example 7, N-(6-Chloro-3,4-dihydrospiro[chromene-2,1′-cyclobutan]-4-yl)-2-(3,4-dimethoxyphenyl)acetamide]
11.7%	68.5%	–	O=C(Cc1cccc2ccccc12)NC1CC2(CCC2)Oc2ccccc21 (stereo not shown) [Example 9, N-(3,4-dihydrospiro[chromene-2,1′-cyclobutan]-4-yl)-2-(1-naphthyl)acetamide]
–	–	6.00 to 6.30	O=C(Cc1cccc2ccccc12)N[C@@H]1CC2(CCC2)Oc2ccc(Cl)cc21 [Example 12, N-[(4R)-6-Chloro-3,4-dihydrospiro[chromene-2,1′-cyclobutan]-4-yl]-2-(1-naphthyl)acetamide]
0%	35.2%	–	O=C(Cc1cccc2ccccc12)N[C@H]1CC2(CCC2)Oc2c(Cl)cccc21 [Example 16, N-[(4S)-8-Chloro-3,4-dihydrospiro[chromene-2,1′-cyclobutan]-4-yl]-2-(1-naphthyl)-acetamide]
21.9%	70%	–	O=C(Cc1cccc2ccccc12)NC1CC2(CCC2)Oc2cccc(O)c21 (stereo not shown) [Example 17, N-(5-Hydroxy-3,4-dihydrospiro[chromene-2,1′-cyclobutan]-4-yl)-2-(1-naphthyl)-acetamide]
63.5%	93.6%	6.00 to 6.30	O=C(CC1CCCc2ccccc21)NC1CC2(CCC2)Oc2ccc(Cl)cc21 (stereo not shown) [Example 21, N-(6-Chloro-3,4-dihydrospiro[chromene-2,1′-cyclobutan]-4-yl)-2-(1,2,3,4-tetrahydronaphthalen-1-yl)acetamide]
6.2%	65.3%	–	O=C(Cc1ccc2c(c1)OCO2)NC1CC2(CCC2)Oc2ccc(Cl)cc21 (stereo not shown) [Example 23, 2-(1,3-Benzodioxol-5-yl)-N-(6-chloro-3,4-dihydrospiro[chromene-2,1′-cyclobutan]-4-yl)acetamide]
26.9%	89.9%	5.70 to 6.00	Cc1c(CC(=O)NC2CC3(CCC3)Oc3ccc(F)cc32)[nH]c2ccc(F)cc12 (stereo not shown) [Example 24, N-(6-Fluoro-3,4-dihydrospiro[chromene-2,1′-cyclobutan]-4-yl)-2-(5-fluoro-3-methyl-1H-indol-2-yl)acetamide]

— patent publication US8487121B2, “Chromane derivatives as TRPV3 modulators” (Glenmark Pharmaceuticals S.A., priority 2007, dated 2013)
